Source: publication PMC13087252, “A CXCR4 targeting peptide delivered by silica nanoparticles eliminates migrating cancer stem cells in pancreatic ductal adenocarcinoma” (Scientific Reports, 2026)

Assays:
[1] = test system: CD133+ CSCs in Panc354 and MetPO1 cells; experiment: Flow cytometry for CD133 after combination treatment; assay type: cell-based, human; settings: flow cytometry after 12 days of treatment, fold change
Description: For surface protein staining, 1 × 10^6 cells were resuspended in 100µl ice-cold FACS buffer supplemented with 6 µl Gamunex for 15 min at 4 °C. Cells were then incubated with CD133 (PE, Miltenyi Biotec, #130-113-108, RRID: AB_2725937) and CXCR4 (APC, eBioscience, #17-9999-42, RRID: AB_1724113) antibodies or an appropriate isotype control for 30 min at 4 °C. After a PBS wash, cells were resuspended in 500µl of ice-cold FACS buffer with DAPI in FACS tubes for analysis.
(§1) (A) Migration assays towards CXCL12 using Panc354 for EPI-X4 and its derivatives at depicted concentrations. […] (D) Quantifications of percent mesenchymal structures after 15 min and 6 h of CXCL12 treatment in MetPO1 cells. […] Intensity ratios (IR) calculated against control lane using ImageJ. […] Quantification of cell viability and representative pictures for clonogenic assays after treatment with JM#21 (10 μM), gemcitabine (Gem) for indicated concentrations as depicted in experimental design in MetPO1 cell line. […]
We then evaluated the therapeutic potential of JM#21. […] Since we have previously shown the role of CSCs in chemoresistance and the benefit of combination therapy for PDAC in vitro and in vivo[6],[38]–[40], we proceeded to evaluate the role of CSCs in the above-mentioned combination treatment and used flow cytometry to quantify CD133 + CSCs after 12 days of treatment (Fig. 5J, Supp. Figure 3I). […]

Panc354 = experiment: Transwell migration assay towards CXCL12 (serum-free, B27); assay type: cell-based, human; settings: 8 μm pore inserts, CXCL12 10 nM as chemoattractant, 30 min peptide pre-treatment, 24 h, B27 as serum substitute, dose-dependent, largest suppression, n = 3
Description: Migration assays were performed using inserts with 8μm pore size PET membranes (Corning, 353,097). Serum (10% FBS) or CXCl12 (10nM) was used in the companion plates as chemoattractant. After 24 h, invaded cells were fixed with 4% PFA and stained with DAPI (Merck, 10,236,276,001). Ten random 10 × fields were chosen and photographed (Keyence), and the pictures were quantified using ImageJ (RRID:SCR_003070).
The CXCL12 – CXCR4 axis regulates a bidirectional tumor-stromal signaling loop that ultimately promotes CSCs and miCSCs and their metastatic and chemoresistant phenotypes. Therefore, targeting CXCR4 may provide a significant improvement in the anticancer therapeutic efficacy. The Endogenous Peptide Inhibitor of CXCR4 (EPI-X4) is a natural antagonist of CXCR4, previously discovered in a human peptide library screen. […]
as §1

Nc1ccn([C@@H]2O[C@H](CO)[C@@H](O)C2(F)F)c(=O)n1 [gemcitabine]
CD133+ population in relapsed cells [1]: significant increase

EPI-X4: Endogenous Peptide Inhibitor of CXCR4, a natural antagonist of CXCR4 from a human peptide library screen (PQNLIKQNCELFEQLG; UniProt P02768 408-423, looked up, fragment)
suppression of CXCL12-induced migration (Panc354): approx. 50%
